Reference: patent US7727511B2, “Agents for imaging soluble a-beta” (priority 2003, dated 2010)
pKd: −log10 of the molar value. Where “and” joins values, the source holds several entries; their conditions need not be identical. Identical values can stand only once.

How the values were obtained:
[1] = biological target: T1, beta-amyloid 1-42 oligomer (20% biotin) (Homo sapiens, UniProt P05067); test: SPA competition binding assay against 3H-49b on soluble oligomers; settings: 50 uM unlabeled competitor, 130 nM 3H-49b
T1 construct: 12 μg beta-amyloid 1-42 oligomer (20% biotin); purchased Bachem H-5642; host or cells: synthetic peptide
Description: Lyophilized Streptavidin-Ysi beads (GE Healthcare) were reconstituted to 100 mg/mL in deioniozed water, and then further diluted in deionized water to give a suspension containing 0.25 mg/10 μl water. Unlabeled 49b and other benzofuran probes were dissolved in DMSO to give a final stock concentration of 15 mM.
For the saturation-binding assay, isotopic dilution of radiolabeled 49b with unlabeled 49b was performed. ^3H-49b was added to 500 uM of unlabeled 49b to a final concentration of 50 μCi/mL ^3H-49b. The probe solution was then serially diluted in PBS to give six solutions giving 6.6, 13.1, 26.3, 52.5, 105, or 210 uM in the final assay well. Each concentration of the probe solution was incubated with 12 μg beta-amyloid 1-42 oligomer (20% biotin) or 1-40 (20% biotin) fibrils in a total volume of 90 μl. Assays were incubated at room temp for 2 hrs before addition of 10 μL YSi-streptavidin (0.25 mg) SPA bead. Assays were set-up in triplicate in 96-well NBS plates (Costar). Assays were incubated overnight and counted the following morning. […] The specific activities of the four probes were different, however the level of activity was the same at the concentrations where the probes were tested. For this assay, 130 nM of ^3H-49b, 90 nM ^3H-cimetidine, 14 nM ^3H-caffeine, and 6 nM ^3H-AZT were tested for direct binding to 12 ug of beta-amyloid-42 oligomer (20% biotin). Assay conditions were the same as described in saturation binding assay. […]
Data analyses were performed using Sigma Plot or GraphPad Prism® version 4. Curves were fitted using non-linear regression. KD values and IC50 values were estimated from the binding curves.
For the competition binding assay between tritium-labeled 49b and various unlabeled benzofuran analogs, assays contained 130 nM ^3H-49b and 50 uM of each of the unlabeled benzofuran analogs. As controls, 10 uM and 50 uM of unlabeled 49b were included in the assays.

soluble A-beta (1-42) = biological target: T2, soluble A-beta (1-42) (Homo sapiens, UniProt P05067); test: Fluorescence titration assay, soluble A-beta; assay type: binding; settings: for pKd: read-out: KD of compound to soluble A-beta (1-42)
T2 construct: 1 mg of human beta-amyloid 1-42 (H-5642, Bachem); purchased Bachem H-5642; host or cells: synthetic peptide
Description: A. 1 mg of human beta-amyloid 1-42 (H-5642, Bachem) and 500 uL of 1,1,1,3,3,3 hexafluoro-2-propanol (HFIP) (Aldrich) were chilled in separate bottles on ice for 30 mins. Cold beta-amyloid 1-42 was solubilized with cold HFIP. The mixture was incubated for 1 hr at room temperature until it turned clear. The resulting solution was then dried to a film under vacuum. The film was dissolved again in cold HFIP and incubated another 1 hr at room temperature. The resulting solution was separated into aliquots in several microcentrifuge tubes. HFIP was removed under vacuum, and the films were stored at −20° C. until use. To prepare soluble oligomer, the film was dissolved in appropriate amount of dry DMSO (Sigma), and Ham's F12 media (Biosource) or PBS (Sigma, D8537) was added and incubated at 4° C. for 24 hours (final concentration of 200 uM or 0.9 mg/mL beta-amyloid in 2% DMSO). The tube containing the soluble oligomers was centrifuged at 13,000 rpm for 5 mins, and its supernatant was transferred to a clean tube.
(§1) Fresh solutions of 2-4 mM probe in methanol were appropriately diluted with PBS (pH 7.4) to obtain assay solutions with final concentration range of 0.1 nM to 100 μM probe in 300-400 μL PBS (pH 7.4, 2% methanol) with 10 μM A-beta (1-40) fibrils or 6.6 μM soluble A-beta (1-42). A duplicate series of assay solutions were aliquoted with the volume of soluble A-beta or fibrils replaced by PBS. The set of solutions with probe and soluble/fibrillar A-beta and the duplicate set without A-beta were prepared and the fluorescence spectra measured in triplicate. Spectral changes in the probe's fluorescence emission spectra that were unique to the presence of A-beta indicated specific binding interactions between the probe and A-beta species. This unique spectral change allowed for the determination of the probe's binding affinity. Fluorescence emission spectra for binding affinity determinations are measured with fluorometric instrumentation known to those skilled in the art, including at least a spectrofluorometer and spectrograph. Equilibrium dissociation constants were calculated using a one-site saturation model of binding.

A-beta (1-40) fibrils = biological target: T3, A-beta (1-40) fibrils (Homo sapiens, UniProt P05067); test: Fluorescence titration assay, fibrils; assay type: binding; settings: for pKd: read-out: KD of compound to insoluble A-beta (1-40) fibrils; for binding to A-beta (1-40) fibrils: fluorescence binding assays, stated in words
T3 construct: Lyophilized human beta-amyloid 1-40 peptide (Catalog number H-1194, Bachem); purchased Bachem H-1194; host or cells: synthetic peptide
Description: B. Insoluble A-beta (1-40) fibril formation: Lyophilized human beta-amyloid 1-40 peptide (Catalog number H-1194, Bachem) was solubilized with HFIP to produce a dry clear film following the process described above for beta-amyloid 1-42. The clear film of beta-amyloid 1-40 was diluted with distilled water to achieve a 6 mg/mL concentration. […] The clear solution was diluted to 1 mg/mL with PBS, pH 7.4 to obtain a final concentration of 1 mg/mL beta-amyloid 1-40, and then incubated at 37° C. on an orbital shaker at 200 RPM for 4 days. A cloudy solution was produced, and the fibril production was confirmed by measuring changes in fluorescence of Thioflavin T, as well as by atomic force microscopy and transmission electron microscopy. Fibrils were used immediately after their production was confirmed.
as §1

[2] = biological target: T1, beta-amyloid 1-42 oligomer (20% biotin); test: Scintillation proximity assay (SPA), direct/saturation binding of tritium labeled probe to soluble oligomers; settings: 90 nM 3H-cimetidine, 14 nM 3H-caffeine, 6 nM 3H-AZT; 12 ug oligomer
Description: For SPA and atomic force microscopy (AFM) experiments, preparations of soluble oligomers and fibrils contained 20% biotinylated beta-amyloid 1-42 and 1-40, respectively (H-5642, H-5914, Bachem).
For the saturation-binding assay, isotopic dilution of radiolabeled 49b with unlabeled 49b was performed. ^3H-49b was added to 500 uM of unlabeled 49b to a final concentration of 50 μCi/mL ^3H-49b. The probe solution was then serially diluted in PBS to give six solutions giving 6.6, 13.1, 26.3, 52.5, 105, or 210 uM in the final assay well. Each concentration of the probe solution was incubated with 12 μg beta-amyloid 1-42 oligomer (20% biotin) or 1-40 (20% biotin) fibrils in a total volume of 90 μl. Assays were incubated at room temp for 2 hrs before addition of 10 μL YSi-streptavidin (0.25 mg) SPA bead. Assays were set-up in triplicate in 96-well NBS plates (Costar). Assays were incubated overnight and counted the following morning. […] Assay conditions were the same as described in saturation binding assay.
A direct binding assay using tritium labeled 49b was performed against oligomers or fibrils by scintillation proximity assay (SPA). Beta-amyloid containing 20% biotin and tritiated 49b were incubated in solution for two hours prior to addition of the Ysi-Streptavidin beads.

[3] = system: beta-amyloid in PDAPP mouse brain sections; test: Histochemical staining on PDAPP transgenic mouse brain sections; assay type: binding; settings: 24-month old PDAPP, carbonate extraction buffer to remove soluble material
Description: 3-month old and 24-month old PDAPP mouse brains were obtained from Eli Lilly (Indianapolis, Ind.). Fresh frozen 30 micron sections of the brains were fixed in 10% formalin. For 49b, or Thioflavin S staining, 1 mM stock solutions of 49b and Thioflavin S were prepared in 50% ethanol. The probes were diluted to 25 μM in 50% ethanol, and then applied onto the PDAPP brain sections. The slides were incubated in a humid chamber at room temperature for 1 hr. The slides were washed three times with PBS and mounting medium (Molecular Probes) was added. The slides were incubated at least 4-6 hours before imaging. For the carbonate pre-treatment of the brain sections, formalin-fixed sections were incubated with 100 μL of carbonate buffer containing 0.025 M sodium chloride and 0.1 M sodium carbonate for 45 mins at 37° C. The slides were washed three times with PBS, then 49b or Thioflavin S were applied on the slides as described above. Microscopic examination and imaging was performed using a Leica wide-field fluorescence microscope using filter cube A for 49b and cube E4 for Thioflavin S. Co-staining of the probes with 6E10 anti-beta-amyloid antibody in the PDAPP brain sections was described in the ex vivo assay using naïve rats.

[4] = 6.6 μM soluble A-beta (1-42), PBS pH 7.4, 2% methanol
[5] = 10 μM A-beta (1-40) fibrils, PBS pH 7.4, 2% methanol

T1 sequence (P05067 672-713 limits assumed): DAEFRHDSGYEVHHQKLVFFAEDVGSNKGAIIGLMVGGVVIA
T2 sequence (P05067 672-713 limits assumed): as above
T3 sequence (P05067 672-711 limits assumed): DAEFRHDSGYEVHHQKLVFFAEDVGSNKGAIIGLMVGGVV
beta-amyloid in PDAPP mouse brain sections, sequence (P05067 672-711 limits assumed): as above

| Compound | inhibition at 50 µM [1] [%] | also measured |
| --- | --- | --- |
| CC(=O)OCc1c(-c2ccc(CN3CCN(c4ccc(C#N)cc4)CC3)o2)oc2ccccc12 [Compound 1c] | 24 |  |
| COC(=O)[C@H](C(C)C)n1cnc(-c2ccccc2)c1-c1ccc(-c2oc3ccccc3c2CO)o1 [Compound 2c] | 30 |  |
| COc1ccc(N2CCN(Cc3ccc(-c4oc5ccccc5c4COC(C)=O)o3)CC2)cc1 [Compound 3c] | 38 |  |
| COCCN1CCN(Cc2ccc(-c3oc4ccccc4c3COC(C)=O)o2)CC1 [Compound 4c] | 41 |  |
| OCc1c(-c2ccc(-c3c(-c4ccccc4)ncn3CCF)o2)oc2ccccc12 [Compound 5c] | 48 |  |
| N#Cc1ccc(C(O)c2ccc(-c3oc4ccccc4c3CO)o2)cc1 (stereo not shown) [Compound 6c] | 51 |  |
| CC(=O)OCc1c(-c2ccc(C=O)o2)oc2ccccc12 [Compound 7c] | 51 |  |
| CC(=O)OCc1c(-c2ccc(C(O)c3ccc(F)c(Cl)c3)o2)oc2ccccc12 (stereo not shown) [Compound 8c] | 51 |  |
| CC(=O)OCc1c(-c2ccc(CN3CCN(c4ccc(Cl)cc4)CC3)o2)oc2ccccc12 [Compound 9c] | 55 |  |
| CCOC(=O)c1ccc(C(O)c2ccc(-c3oc4ccccc4c3CO)o2)o1 (stereo not shown) [Compound 10c] | 57 |  |
| OCc1c(-c2ccc(-c3cncn3CCF)o2)oc2ccccc12 [Compound 11c] | 58 |  |
| CCOC(=O)c1ccc(C(O)c2ccc(-c3oc4ccccc4c3COC(C)=O)o2)o1 (stereo not shown) [Compound 12c] | 59 |  |
| CC(=O)OCc1c(-c2ccc(CN3CCN(c4ccc(C(F)(F)F)cc4)CC3)o2)oc2ccccc12 [Compound 13c] | 60 |  |
| CC(=O)OCc1c(-c2ccc(CN3CCN(c4ccc(C)cc4)CC3)o2)oc2ccccc12 [Compound 14c] | 60 |  |
| OCc1c(-c2ccc(C(O)CCC3OCCCO3)o2)oc2ccccc12 (stereo not shown) [Compound 15c] | 68 |  |
| COc1cc(-c2oc3ccccc3c2CO)cc(OC)c1OC [Compound 37b] |  | pKd (soluble A-beta (1-42); [4]): 7.66 and 7.64; increase in fluorescence intensity (and quantum yield) with soluble A-beta (soluble A-beta (1-42); relative to compound in 2% methanol in PBS): approximately 5 times; pKd (A-beta (1-40) fibrils; [5]): < 4.00; binding to A-beta (1-40) fibrils (A-beta (1-40) fibrils): minimal specific binding |
| Cc1cc(-c2oc3ccccc3c2C(=O)c2ccccc2)ccc1F [Compound 38b] |  | KD of compound to soluble A-beta (1-42) (soluble A-beta (1-42); [4]): Nonspecific binding; binding to soluble A-beta (1-42) (soluble A-beta (1-42); fluorescence binding assays, stated in words): neither binds; KD of compound to insoluble A-beta (1-40) fibrils (A-beta (1-40) fibrils; [5]): Nonspecific binding; binding to A-beta (1-40) fibrils (A-beta (1-40) fibrils): neither binds |
| Cc1cc(-c2oc3ccccc3c2C)ccc1F [Compound 39b] |  | pKd (soluble A-beta (1-42); [4]): < 4.00; pKd (A-beta (1-40) fibrils; [5]): 5.77; binding to A-beta (1-40) fibrils (A-beta (1-40) fibrils): specifically binds |
| CN/C(=N/CCSCc1nc[nH]c1C)NC#N [cimetidine, reference compound] |  | direct binding of tritium labeled probe to soluble oligomers [2]: did not bind |
| Thioflavin S [reference compound] |  | staining of carbonate pre-treated brain sections [3]: staining remained |
